Test results as given in ChEMBL document CHEMBL4393732, “Influence of nisin hinge-region variants on lantibiotic immunity and resistance proteins” (Bioorg Med Chem, 2019).
The source made the active and inactive calls. No cut-off for these calls is given here.

What was measured:
[1] = (§1) Resistance ratio of IC50 for Inhibition of Lactococcus lactis Nis1 harboring in Lactococcus lactis NZ9000 assessed as decrease in Nis1 induced resistance measured as increase in growth inhibition to IC50 for growth inhibition of nisin-sensitive Lactococcus lactis NZ9000Cm incubated for 5 hrs by optical density based plate reader assay
[2] = Inhibition of Streptococcus agalactiae COH1 NsrFP transfected in Lactococcus lactis NZ9000 assessed as decrease in NsrFP-induced resistance by measuring increase in growth inhibition incubated for 5 hrs by optical density based plate reader assay
Lactococcus lactis [3] = experiment: Growth inhibition of nisin-sensitive Lactococcus lactis NZ9000Cm incubated for 5 hrs by optical density based plate reader assay; format: functional, organism-based
[4] = Inhibition of Streptococcus agalactiae COH1 NSR transfected in Lactococcus lactis NZ9000 assessed as decrease in NSR-induced resistance by measuring increase in growth inhibition incubated for 5 hrs by optical density based plate reader assay
[5] = Inhibition of Lactococcus lactis Nis1 harboring in Lactococcus lactis NZ9000 assessed as decrease in Nis1 induced resistance measured as increase in growth inhibition incubated for 5 hrs by optical density based plate reader assay
Lactococcus lactis [6] = experiment: Induction of pore formation in Lactococcus lactis NZ9000Cm assessed as increase in florescence intensity at 3 times antibacterial IC50 measured after 200 secs by sytox green-based fluorescence assay relative to control; format: functional
[7] = as §1, with “inhibition” for “Inhibition”, “Streptococcus agalactiae COH1 NsrFP transfected” for “Lactococcus lactis Nis1 harboring”, “NsrFP” for “Nis1”
[8] = Inhibition of Lactococcus lactis ATP-binding cassette transporter NisFEG harboring in Lactococcus lactis NZ9000 assessed as decrease in NisFEG induced resistance measured as increase in growth inhibition incubated for 5 hrs by optical density based plate reader assay
[9] = as §1, with “inhibition” for “Inhibition”, “Streptococcus agalactiae COH1 NSR transfected” for “Lactococcus lactis Nis1 harboring”, “NSR” for “Nis1”
[10] = as §1, with “for inhibition” for “for Inhibition”, “lactis ATP-binding cassette transporter NisFEG” for “lactis Nis1”, “in NisFEG” for “in Nis1”
Lactococcus lactis [11] = experiment: Induction of pore formation in Lactococcus lactis NZ9000Cm assessed as increase in florescence intensity at 3 times antibacterial IC50 measured after 200 secs by sytox green-based fluorescence assay; format: functional, organism-based

Row | Compound | Ratio IC50 [1] | IC50 [2] [nM] | IC50 (Lactococcus lactis [3]) [nM] | IC50 [4] [nM] | IC50 [5] [nM] | Activity (Lactococcus lactis [6]) [%] | Ratio IC50 [7] | IC50 [8] [nM] | Ratio IC50 [9] | Ratio IC50 [10] | Activity (Lactococcus lactis [11])
1 | C=C(NC(=O)[C@@H](NC(=O)[C@H](Cc1cnc[nH]1)NC(=O)[C@@H](NC(=O)[C@H](CO)NC(=O)[C@@H]1CS[C@@H](C)[C@@H]2NC(=O)[C@H](C)NC(=O)[C@@H](NC(=O)[C@H](CCCCN)NC(=O)[C@H](CCSC)NC(=O)[C@@H](NC(=O)[C@@H](NC(=O)[C@H](CC(N)=O)NC(=O)[C@@H]3CS[C@@H](C)[C@H](NC(=O)[C@H](CCCCN)NC(=O)[C@@H]4CS[C@@H](C)[C@H](NC(=O)[C@@H]5CSC[C@H](NC(=O)/C(=C/C)NC(=O)[C@@H](N)[C@@H](C)CC)C(=O)N[C@@H]([C@@H](C)CC)C(=O)NC(=C)C(=O)N[C@@H](CC(C)C)C(=O)N5)C(=O)N5CCC[C@H]5C(=O)NCC(=O)N4)C(=O)NCC(=O)N[C@@H](C)C(=O)N[C@@H](CC(C)C)C(=O)N[C@@H](CCSC)C(=O)NCC(=O)N3)[C@@H](C)CC)C(C)C)[C@H](C)SC[C@H](NC2=O)C(=O)N[C@@H](Cc2cnc[nH]2)C(=O)N1)[C@@H](C)CC)C(C)C)C(=O)N[C@@H](CCCCN)C(=O)O | 9.46 | 121 | 8.17 | 102 | 77.3 | 15 | 14.8 | 107 | 12.4 | 13.1 | –
2 | C=C(NC(=O)[C@@H](NC(=O)[C@H](Cc1cnc[nH]1)NC(=O)[C@@H](NC(=O)[C@H](CO)NC(=O)[C@@H]1CS[C@@H](C)[C@@H]2NC(=O)[C@H](C)NC(=O)[C@@H](NC(=O)[C@@H](NC(=O)[C@@H](NC(=O)[C@H](CCCCN)NC(=O)[C@H](CCSC)NC(=O)[C@H](CC(N)=O)NC(=O)[C@@H]3CS[C@@H](C)[C@H](NC(=O)[C@H](CCCCN)NC(=O)[C@@H]4CS[C@@H](C)[C@H](NC(=O)[C@@H]5CSC[C@H](NC(=O)/C(=C/C)NC(=O)[C@@H](N)[C@@H](C)CC)C(=O)N[C@@H]([C@@H](C)CC)C(=O)NC(=C)C(=O)N[C@@H](CC(C)C)C(=O)N5)C(=O)N5CCC[C@H]5C(=O)NCC(=O)N4)C(=O)NCC(=O)N[C@@H](C)C(=O)N[C@@H](CC(C)C)C(=O)N[C@@H](CCSC)C(=O)NCC(=O)N3)[C@@H](C)CC)C(C)C)[C@H](C)SC[C@H](NC2=O)C(=O)N[C@@H](Cc2cnc[nH]2)C(=O)N1)[C@@H](C)CC)C(C)C)C(=O)N[C@@H](CCCCN)C(=O)O | 3.29 | 44.4 | 22.3 | 64.8 | 73.2 | – | 1.99 | 36.9 | 2.91 | 1.66 | Active
3 | C=C(NC(=O)[C@@H](NC(=O)[C@H](Cc1cnc[nH]1)NC(=O)[C@@H](NC(=O)[C@H](CO)NC(=O)[C@@H]1CS[C@@H](C)[C@@H]2NC(=O)[C@H](C)NC(=O)[C@@H](NC(=O)[C@H](CC(N)=O)NC(=O)[C@@H]3CS[C@@H](C)[C@H](NC(=O)[C@H](CCCCN)NC(=O)[C@@H]4CS[C@@H](C)[C@H](NC(=O)[C@@H]5CSC[C@H](NC(=O)/C(=C/C)NC(=O)[C@@H](N)[C@@H](C)CC)C(=O)N[C@@H]([C@@H](C)CC)C(=O)NC(=C)C(=O)N[C@@H](CC(C)C)C(=O)N5)C(=O)N5CCC[C@H]5C(=O)NCC(=O)N4)C(=O)NCC(=O)N[C@@H](C)C(=O)N[C@@H](CC(C)C)C(=O)N[C@@H](CCSC)C(=O)NCC(=O)N3)[C@H](C)SC[C@H](NC2=O)C(=O)N[C@@H](Cc2cnc[nH]2)C(=O)N1)[C@@H](C)CC)C(C)C)C(=O)N[C@@H](CCCCN)C(=O)O | 2.5 | 213 | 43.4 | 221 | 109 | – | 4.9 | 72.1 | 5.09 | 1.66 | inactive
